Measurements taken from US20130324520A1, “RXRG MODULATORS FOR THE TREATMENT OF CANCER” (SLOAN-KETTERING INSTITUTE FOR CANCER RESEARCH, priority 2011, published 2013).
Entries after “also recorded” stand apart in the source; their conditions may differ.

How the values were obtained:
A549 = test: Drug treatment on cancer cell lines, cell counting; type: cell-based; settings: for effect of combination with HX531 on growth: MEK inhibitor plus HX531; for growth inhibition, single agent: day 3, 6 uM HX531, 10 uM PD98059, 100 nM PD0325901
Excerpt: (§1) DMSO was used for control.

PC931019 [1] = test: Drug treatment on cancer cell lines, cell counting; type: cell-based; settings: for growth inhibition, single agent / effect of combination with HX531 on growth: day 9; for growth inhibition, single agent: 6 uM HX531, 10 uM PD98059, 100 nM PD0325901; for effect of combination with HX531 on growth: MEK inhibitor plus 6 uM HX531; for cell growth: KRAS mutated pancreatic cancer (PC1019)
Excerpt: as §1

HCT116 = test: Drug treatment on cancer cell lines, cell counting; type: cell-based; settings: day 3; for growth inhibition, single agent: 6 uM HX531, 10 uM PD98059, 100 nM PD0325901; for effect of combination with HX531 on growth: MEK inhibitor plus 6 uM HX531
Excerpt: as §1

H1975 [2] = test: Drug treatment on cancer cell lines, cell counting; type: cell-based; settings: EGFR mutated lung cancer
Excerpt: as §1

H820 = test: Drug treatment on cancer cell lines, cell counting; type: cell-based; settings: EGFR mutated lung cancer
Excerpt: as §1

PC941102 = test: Drug treatment on cancer cell lines, cell counting; type: cell-based; settings: KRAS mutated pancreatic cancer (PC1102)
Excerpt: as §1

H3255 = test: Drug treatment on cancer cell lines, cell counting; type: cell-based; settings: EGFR mutated lung cancer
Excerpt: as §1

H1650 = test: Drug treatment on cancer cell lines, cell counting; type: cell-based; settings: EGFR mutated lung cancer
Excerpt: as §1

PC930201 = test: Drug treatment on cancer cell lines, cell counting; type: cell-based; settings: KRAS mutated pancreatic cancer (PC0201)
Excerpt: as §1

[3] = system: PTEN mutated prostate cancer, small cell lung cancer, and breast cancer; test: Drug treatment on cancer cell lines, cell counting (group of lines); type: cell-based; settings: PTEN mutant lines as a group
Excerpt: as §1

[4] = system: EGFR and KRAS activated NSCLC, pancreatic, and colon cancers; test: as above; type: cell-based; settings: for cell growth / proliferation: KRAS or EGFR mutant colon, NSCLC, pancreatic, hepatoma cells, concentration not given
Excerpt: as §1

RB177 = test: RXRG ligands on retinoblastoma cell growth; type: cell-based
Procedure: (§2) Colon, lung, pancreatic cancer, retinoblastoma and other cell lines were cultured in culture medium consisting of IMDM (Medium Lab, MSKCC, NY) with 10% FBS (SH3008803, HyClone, Thermo Scientific), 2 mM glutamine (Invitrogen), 55 μM beta-mercaptoethanol (Invitrogen), 1% Penicillin/streptomycin (Invitrogen), and 2.5 μg/ml Plasmocin (Invivogen), at 37° C. in a humidified incubator with 5% CO2. Melanoma cell lines were culture in RPMI with above additives.
(§3) Colon, lung, pancreatic, breast, prostate cancer cell lines and other cancer cell lines were cultured in 10 cm dishes or 24 well plates with complete IMDM or RPMI (for melanoma) with 30-50% confluence. […] DMSO was used for control. After 3-6 days treatment, cells were collected and counted with trypan blue. Dose-effectiveness curves were generated with series dilution of compounds in medium for treatment of cells.

[5] = system: RB1 mutated retinoblastoma; test: RXRG ligands on retinoblastoma cell growth; type: cell-based
Procedure: as §2, §3

[6] = patients; cited from earlier work
H1975 [7] = test: Cell cycle analysis; type: cell-based; settings: EGFR mutant NSCLC, day 3
PC931019 [8] = test: Cell cycle analysis; type: cell-based; settings: KRAS mutant pancreatic cancer, day 3
Procedure: After drug treatment, cells were collected for cell cycle analysis, RNA isolation, quantitative PCR, western blot, and immunofluorescence. For cell cycle analysis, retinoblastoma, neuroblastoma, lung, pancreatic, and colon cancer cells were collected and dissociated on days 3, 5, 7, 9, 11, and 16 after treatment. Cells were fixed by 70% cold ethanol alcohol while vortex, and put in −20° C. for storage. […] At 24 hours after treatment, 4 ug/ml Aphidicolin was added to cells with compounds for 24 hr. Aphidicolin was removed by centrifugation and PBS wash, and then added to new wells with fresh medium and compounds. Cells were collected and fixed before addition of aphidicolin, immediately after removal of aphidicolin, and every two hours thereafter until 16-18 hours.
The tubes with cells were taken out of the freezer and alcohol was removed by centrifugation. 150 ul of 0.06 mg/ml propidium iodide with 0.1% NF40 was added to the cells, and then 100 ul of 2 mg/ml of RNase was added to the cells. These were mixed well and incubated at 37° C. for 30 min. The cell ploidy according to DNA contents were measured in FACSCalibur with FL3-Width and FL3-Height as the parameter. Flowjo was used for analysis of the cell cycle changes.

MDA-MB-468 = test: Drug treatment on cancer cell lines, cell counting; type: cell-based; settings: UVI3003 10 uM (FIG. 23)
Excerpt: as §1

H1755 = test: Drug treatment on cancer cell lines, cell counting; type: cell-based; settings: UVI3003 10 uM (FIG. 23)
Excerpt: as §1

Saos2 = test: Drug treatment on cancer cell lines, cell counting; type: cell-based; settings: UVI3003 10 uM (FIG. 23)
Excerpt: as §1

SCLC = test: Drug treatment on cancer cell lines, cell counting (group of lines); type: cell-based; settings: UVI3003 10 uM (FIG. 23); some PTEN mutated SCLC
Excerpt: as §1

normal fibroblasts WI38 = test: Drug treatment on cell lines, cell counting; type: cell-based; settings: UVI3003 10 uM (FIG. 23)
Excerpt: as §1

Row | SMILES | effect of combination with HX531 on growth (A549) | growth inhibition, single agent (A549) | growth inhibition, single agent (PC931019 [1]) | effect of combination with HX531 on growth (PC931019 [1]) | growth inhibition, single agent (HCT116) | effect of combination with HX531 on growth (HCT116) | cell growth (H1975 [2]) | cell growth (H820) | cell growth (PC941102) | cell growth (H3255) | cell growth (H1650) | cell growth (PC930201) | cell growth (PC931019 [1]) | cell growth [3] | cell growth / proliferation [4] | further results
1 | COc1cccc(-c2cc(=O)c3ccccc3o2)c1N [PD98059] | synergistic effects | moderate growth inhibition | growth inhibition | same synergistic effects | moderate growth inhibition | Synergistic effects |  |  |  |  |  |  |  |  |  | 
2 | CCCCCCOc1cc2c(cc1N(C)c1ncc(C(=O)O)cn1)C(C)(C)CCC2(C)C [PA452] |  |  |  |  |  |  | sensitive | sensitive | sensitive | sensitive | sensitive | sensitive | sensitive | suppress the growth | efficiently suppress | 
3 | CC1=C(/C=C/C(C)=C\C=C\C(C)=C\C(=O)O)C(C)(C)CCC1 [9 cis RA, 9-cis-Retinoic acid] |  |  |  |  |  |  |  |  |  |  |  |  |  |  |  | cell growth (RB177): suppressed cell growth; retinoblastoma cell growth ([5]; in vitro): suppressed retinoblastoma cell growth
4 | O=C(NOC[C@H](O)CO)c1ccc(F)c(F)c1Nc1ccc(I)cc1F [PD0325901] | synergistic effects | moderate growth inhibition | growth inhibition | same synergistic effects | moderate growth inhibition | Synergistic effects |  |  |  |  |  |  |  |  |  | outcome of clinical trial (toxicity) [6]: terminated because of high toxicity in patients
5 | CCCCCOc1cc2c(cc1-c1cc(/C=C/C(=O)O)ccc1O)C(C)(C)CCC2(C)C [UVI3003] |  |  |  |  |  |  | sensitive | sensitive | sensitive | sensitive | sensitive | sensitive | sensitive | suppress the growth | efficiently suppress | cell cycle, G1-S transition (H1975 [7]): inhibited G1-S transition; cell cycle, G1-S transition (PC931019 [8]): similarly sensitive; also recorded: inhibited G1-S transition; relative cell number after treatment (MDA-MB-468): sensitive; relative cell number after treatment (H1755): sensitive; relative cell number after treatment (Saos2): not sensitive; relative cell number after treatment ([4]; UVI3003 10 uM (FIG. 23), incl. gastric cancer): sensitive; relative cell number after treatment (SCLC): sensitive; relative cell number after treatment (normal fibroblasts WI38): not sensitive; relative cell number after treatment ([5]; UVI3003 10 uM (FIG. 23)): not sensitive
